In article PMC1716192, “A Plant-Derived Morphinan as a Novel Lead Compound Active against Malaria Liver Stages” (PLoS Medicine, 2006):
“Also recorded” adds a separate entry of the source.

How the values were obtained:
[1] = system: P. yoelii (265 BY strain) sporozoites; assay: In vivo assay: P. yoelii sporozoite challenge in mice; parameters: species or system Swiss mice
Method: All animal were kept and used in accordance with institutional guidelines and European regulations. Female 6-wk-old Swiss mice (René Janvier, Le Genest-Saint-Isle, France) weighing 24–31 g were randomly allotted to five groups. The drug to be tested was administered orally. Tazopsine was diluted in sterile water and NCP-tazopsine in sterile water with 10% of Tween 80 (Aldrich, Le Chesnay, France). The drugs were administrated on days −1, 0, +1, +2 (+40 h), and the mice challenged on day 0 by retro-orbital injection of P. yoelii (265 BY strain) sporozoites. Group 1 received 100 mg/kg/day of tazopsine (n = 5), and group 2 received sterile water at the same times (controls, n = 5); groups 1 and 2 were challenged with 4,000 sporozoites. Group 3 received 100 mg/kg/d of NCP-tazopsine (n = 5), group 4 received 200 mg/kg/d of NCP-tazopsine (n = 8), and group 5 received 10% Tween in sterile water (controls, n = 5); groups 3, 4, and 5 were challenged with 10,000 sporozoites. Parasites were enumerated by blinded microscopic examination of Giemsa-stained tail-blood smears collected from day 2 to day 23 postinoculation. A mouse was considered negative when no parasites could be observed in 20,000 red blood cells (50 fields under a 50× light microscope objective) on any day during the period of observation. The results presented were derived from two independent duplicate experiments.

[2] = system: P. falciparum (NF 54 strain) hepatic stages; assay: In vitro assay for P. falciparum liver stage inhibition in primary human hepatocytes; type: cell-based; settings: for IC50 / IC90: 120 h
Method: P. yoelii (265 BY strain) and P. falciparum (NF 54 strain) sporozoites were obtained by dissection of infected Anopheles stephensi salivary glands. Primary mouse hepatocytes were isolated as previously described and seeded in eight-well Lab-Tek plastic chamber slides (VWR, Fontenay-sous-Bois, France) previously coated with rat-tail collagen I (BD Biosciences, Le Pont de Claix, France) at a density of 10^5 cells per well. Mouse hepatocytes were cultured at 37 °C in 5% CO2 in William's E medium supplemented with 10% fetal calf serum, 1% L-glutamine, 1% sodium pyruvate, 1% insulin-transferrin-selenium, 1% nonessential amino acids, and 1% penicillin-streptomycin (all from Invitrogen, Cergy-Pontoise, France), for 24 h before inoculation of P. yoelii sporozoites (10^5 per well). Human liver fragments were collected following informed consent provided from patients undergoing a partial hepatectomy. The collection and use of these tissues were undertaken in accordance with French Government ethical regulations. Primary human hepatocytes were isolated from the healthy parts of these liver biopsies as previously described. Human hepatocytes were seeded in LabTek plastic chamber slides coated with collagen, at a density of 1.8 × 10^5 cells per well and cultured at 37 °C in 5% CO2 in the same medium as above, supplemented with 10^−7 M dexamethasone (Sigma) and 2% DMSO after complete cell adherence (12–24 h), for at least 48 h before inoculation of P. falciparum sporozoites (10^5 per well). For a standard assay, the plant extract, the purified compound, or primaquine was solubilized in DMSO, further diluted in culture medium (equal DMSO concentrations of <0.3% per well), and then added to hepatocyte cultures at the time of sporozoite inoculation. Three hours later, after sporozoite penetration into hepatocytes, cultures were washed and further incubated in the presence of the drug. Culture medium containing the appropriate drug concentration was changed daily until 48 h for P. yoelii, or until 5 d for P. falciparum. Parasites were quantified on the last day of incubation. For the in vitro timing experiments, tazopsine treatment of P. yoelii and P. falciparum cultures was undertaken for different periods during the cultivation: 0 h to 3 h, 3 h to 24 h, or 24 h to 48 h after P. yoelii sporozoite inoculation (quantification at 48 h), or 0 h to 2 d, or 3 d to 5 d after P. falciparum sporozoite inoculation (quantification at 5 d). […] Cells were stained with Evans Blue (0.4%), and parasites and cells nuclei were stained with 1 μg/ml of diamidino-phenylindole (DAPI; Sigma). Parasite numbers were counted under a fluorescence microscope with a 25× light microscope objective. IC50 values, the drug concentration at which a 50% reduction in the number of parasites was observed, as compared to the number in the DMSO control cultures, were derived from two independent experiments in which each concentration was tested in triplicate wells.
IC50 and TC50 were calculated by nonlinear regression using four-parameter logistic curves on the SigmaPlot 10.0 software (http://www.systat.com). Each IC50 or TC50 is expressed as a mean between two independent experiments, followed by the standard error of the mean.

P. yoelii blood stages = assay: In vivo assay: P. yoelii blood stages in mice
Method: In order to test for inhibitory activity against P. yoelii blood stages, four groups of five naive mice were inoculated (intraperitoneally) with 10^6 P. yoelii–infected red blood cells on day 0. Three hours later, one group was treated with tazopsine at 100 mg/kg, another with NCP-tazopsine at 200 mg/kg, whereas the other two groups acted as controls (respectively, water and 10% Tween 80). The doses were repeated daily until day +3. For the group treated with NCP- tazopsine and its control group, the animals were anesthetised 2 h following the administration of the last dose (day +3), and placed for 30 min over a cage with 100 female laboratory-bred A. stephensi. Oocysts were enumerated in 30 mosquito midguts dissected 8 d later, and the number of sporozoites in the salivary glands dissected from 30 insects was ascertained a further 7 d later. All the experiments were performed in two independent duplicates, and enumeration of parasites in blood smears and mosquitoes was conducted in a blinded fashion.

[3] = 100 mg/kg daily for 4 d oral, challenge with 4,000 P. yoelii sporozoites
[4] = Plasmodium falciparum, Hepatocyte

Compound | extension of prepatent period over controls (nonprotected mice) ([1]; 100 mg/kg daily for 4 d oral, 4,000 sporozoites) | mice protected from infection [1, 3] | mice that developed a blood stage parasitemia [1, 3] | phase of hepatic development most susceptible to inhibition ([2]; P. falciparum, exposure 0 h-2 d or 3 d-5 d) | concentration at which parasite development fully inhibited ([2]; P. falciparum-infected primary human hepatocyte cultures) | IC80 [2, 4] | IC50 [2, 4] | IC90 [2, 4] | size of surviving hepatic parasites versus control cultures ([2]; suboptimal inhibitory concentrations, 5 d) | inhibition of the erythrocytic multiplication cycle (P. yoelii blood stages; 100 mg/kg daily, mice challenged with P. yoelii-infected blood (unpublished data)) | extension of prepatent period over controls (nonprotected mice) ([1]; 100 mg/kg for 4 d oral, 10,000 sporozoites) | mice protected from infection ([1]; 100 mg/kg for 4 d oral, challenge with 10,000 P. yoelii sporozoites) | mice developing a blood stage infection / protection after sporozoite challenge ([1]; 200 mg/kg daily over 4 d oral, challenge with 10,000 P. yoelii sporozoites) | effect on blood stage parasite multiplication (P. yoelii blood stages; fully protective dose (200 mg/kg), mice inoculated with P. yoelii-infected blood (unpublished data))
COC1=C2[C@H]3NCC[C@]2(C[C@H](O)[C@@H]1O)c1c(ccc(OC)c1O)[C@H]3O [Tazopsine, tazopsine] | about 4 d | 70% | 30% | most susceptible to inhibition during the early stage of trophozoite development | ≥ 28 µM | 10 µM | 4.2 ± 0.1 µM | 18.3 ± 2.8 µM | significantly smaller | No significant inhibition |  |  |  | 
COC1=C2[C@@H]3[C@H](O)c4ccc(OC)c(O)c4[C@]2(CCN3C2CCCC2)C[C@H](O)[C@@H]1O [NCP-tazopsine, N-cyclopentyl-tazopsine] |  |  |  |  |  |  | 42.4 µM | 95.4 ± 6.6 µM |  |  | 2 days | 60% | completely protected; also recorded: none of the mice developed a blood stage infection; also recorded: fully protected | no effect
